The values that follow are results of earlier work, collected in patent US8227490B2, “Use of 1-hydroxy-2-pyridones for the treatment of seborrheic dermatitis” (Medicis Pharmaceutical Corporation, priority 1996, dated 2012).

This data set relates to gram-positive bacteria. Particulars: Kinsman et al., J. Med. Microbiol. (1983).

In the case of `CC(=O)N1CCN(c2ccc(OCC3COC(Cn4ccnc4)(c4ccc(Cl)cc4Cl)O3)cc2)CC1` (stereo not shown) [ketoconazole], the “activity in vitro against gram-positive bacteria” value was “inactive”.
